For one test, the system named is Osteoclast. Put plainly: Inhibition of RANKL-induced mouse BMDM cell differentiation assessed as reduction in TRAP-positive multi-nucleated osteoclast cells preincubated for 5 mins followed by RANKL/M-CSF addition measured after 4 days by light microscopic analysis. Format: functional, cell-based.
The subject of test [1] is BMDM. Put plainly: Inhibition of RANKL-induced mouse BMDM cell differentiation assessed as reduction in TRAP activity at 0.1 to 30 uM using p-nitrophenyl phosphate as substrate preincubated for 5 mins followed by RANKL/M-CSF addition measured after 4 days. It counts as functional, cell-based.
The target in test [2] is Mitogen-activated protein kinase 1 (Mus musculus) (UniProt P63085). Put plainly: Inhibition of RANKL-induced ERK2 phosphorylation in mouse BMDM cells assessed as ratio of phosphorylated ERK2 to ERK2 at 10 uM preincubated for 5 mins followed RANKL/M-CSF addition for 5 mins by Western blot analysis (reference value: 2.6). Format: cell-based. For orientation: Immunoblotting shows a protein as a band on a membrane.
Sequence of Mitogen-activated protein kinase 1 (Mus musculus) (P63085 whole entry): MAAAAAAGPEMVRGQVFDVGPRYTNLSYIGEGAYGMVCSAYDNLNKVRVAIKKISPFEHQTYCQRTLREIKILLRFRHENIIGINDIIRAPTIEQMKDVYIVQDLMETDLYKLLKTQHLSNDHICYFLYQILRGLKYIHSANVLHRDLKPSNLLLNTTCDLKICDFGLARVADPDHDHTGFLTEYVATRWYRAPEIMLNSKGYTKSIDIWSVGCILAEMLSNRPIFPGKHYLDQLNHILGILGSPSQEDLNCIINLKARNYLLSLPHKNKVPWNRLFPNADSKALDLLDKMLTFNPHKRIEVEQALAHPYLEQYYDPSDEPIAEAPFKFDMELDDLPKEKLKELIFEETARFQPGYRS

Test [3] addresses Mitogen-activated protein kinase 8 (Mus musculus) (UniProt Q91Y86). Put plainly: Inhibition of RANKL-induced JNK1 phosphorylation in mouse BMDM cells assessed as ratio of phosphorylated JNK1 to JNK1 at 10 uM preincubated for 5 mins followed RANKL/M-CSF addition for 5 mins by Western blot analysis (reference value: 3.7). Format: cell-based.
Test [4] has as its target RAC-alpha serine/threonine-protein kinase (Mus musculus) (UniProt P31750). Put plainly: Inhibition of RANKL-induced AKT phosphorylation in mouse BMDM cells assessed as ratio of phosphorylated AKT to AKT at 10 uM preincubated for 5 mins followed RANKL/M-CSF addition for 5 mins by Western blot analysis (reference value: 2.1). It counts as cell-based.
Test [5] has as its system BMDM. Put plainly: Inhibition of RANKL-induced NFATc1 mRNA expression in mouse BMDM cells at 10 uM preincubated with cells followed by RANKL addition measured after 2 days by real-time PCR analysis. It counts as functional, cell-based.
The subject of test [6] is BMDM. Put plainly: Inhibition of RANKL-induced c-Src mRNA expression in mouse BMDM cells at 10 uM preincubated with cells followed by RANKL addition measured after 2 days by real-time PCR analysis. It counts as functional, cell-based.
Test [7] concerns C2C12. Put plainly: Induction of BMP2-induced osteoblast differentiation in mouse C2C12 cells preincubated with cells after 3 days by […] assay. It counts as functional, cell-based.
For test [8], the system named is C2C12. Put plainly: Induction of BMP2-induced osteoblast differentiation in mouse C2C12 cells assessed as increase in ALP mRNA expression at 10 uM preincubated with cells followed by BMP2 addition measured after 3 days by real-time PCR analysis. It counts as functional, cell-based. On the technique in general: Real-time PCR tracks product formation cycle by cycle.

The subject of test [9] is C2C12. Put plainly: Increase in BMP2-induced BMP7 protein expression in mouse C2C12 cells assessed as ratio of BMP7 to actin at 10 uM measured on day 6 by Western blot analysis (reference value: 2.4). Format: functional.
The next test concerns Mus musculus. Put plainly: Osteogenic activity in ICR mouse calvarial bone implanted with collagen sponges containing 10 mM compound incubated for 2 weeks assessed as increase in bone volume relative to control. Format: functional.
The target in test [10] is T1, SMAD1/5/9 (Mus musculus) (UniProt P70340+P97454+Q9JIW5). Put plainly: Increase in BMP2-induced Smad1/5/8 nuclear translocation in mouse C2C12 cells assessed as ratio of Smad1/5/8 to lamin B1 in nuclear fraction at 10 uM preincubated with cells followed by BMP2 addition for 4 hrs by Western blot analysis (reference value: 1.5). Format: cell-based.
Test [11] concerns the target T1, SMAD1/5/9 (Mus musculus). Put plainly: Activation of Smad1/5/8 in mouse C2C12 cells assessed as increase in BMP2-stimulated OPN mRNA expression at 10 uM preincubated with cells followed by BMP2 addition after 3 days by real-time PCR analysis. It counts as cell-based.

Active and inactive are the calls of the source. The calls are words filed in the database; no cut-off is given here.

Sequence of Mitogen-activated protein kinase 8 (Mus musculus) (Q91Y86 whole entry): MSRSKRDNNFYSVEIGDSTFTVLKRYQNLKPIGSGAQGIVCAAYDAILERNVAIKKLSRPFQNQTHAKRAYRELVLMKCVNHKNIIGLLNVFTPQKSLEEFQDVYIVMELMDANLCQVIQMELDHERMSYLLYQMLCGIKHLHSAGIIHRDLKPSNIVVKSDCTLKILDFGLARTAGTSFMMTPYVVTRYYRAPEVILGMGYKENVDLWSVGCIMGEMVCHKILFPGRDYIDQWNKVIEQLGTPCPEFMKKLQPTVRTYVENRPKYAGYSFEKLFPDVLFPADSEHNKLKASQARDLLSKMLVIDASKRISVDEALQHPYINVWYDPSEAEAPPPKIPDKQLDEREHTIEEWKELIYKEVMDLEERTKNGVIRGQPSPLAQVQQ
Sequence of RAC-alpha serine/threonine-protein kinase (Mus musculus) (P31750 whole entry): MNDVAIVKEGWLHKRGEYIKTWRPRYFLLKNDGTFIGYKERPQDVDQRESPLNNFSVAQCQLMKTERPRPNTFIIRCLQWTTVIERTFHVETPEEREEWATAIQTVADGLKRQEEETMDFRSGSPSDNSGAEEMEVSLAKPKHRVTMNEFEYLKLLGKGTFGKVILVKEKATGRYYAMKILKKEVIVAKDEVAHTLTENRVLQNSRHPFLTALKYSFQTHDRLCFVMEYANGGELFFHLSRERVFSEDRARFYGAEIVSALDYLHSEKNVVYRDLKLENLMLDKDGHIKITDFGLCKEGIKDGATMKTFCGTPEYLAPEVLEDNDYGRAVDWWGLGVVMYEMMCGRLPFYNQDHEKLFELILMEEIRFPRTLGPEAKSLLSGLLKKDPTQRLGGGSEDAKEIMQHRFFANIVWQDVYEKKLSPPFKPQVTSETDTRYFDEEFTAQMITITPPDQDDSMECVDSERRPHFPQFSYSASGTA

As to `COc1cccc(OC)c1C(=O)c1c(O)cc(C)c(OC)c1C1=C(c2c(OC)cccc2OC)c2c(O)cc(C)c(OC)c2C1=O`, the inhibition entry in the test with Osteoclast is “Dose-dependent effect”. The inhibition result in the test with BMDM [1], in the test with BMDM [5] and in the test with BMDM [6] was “Active” each time. The fold change (FC) in test [2] was determined as 2.8; in test [3] it was 2.9; in test [4] it was 2; in the test with C2C12 [9], 3.1; in the test with Mus musculus, 2.7; on SMAD1/5/9 (Mus musculus) [10], 2.4. In addition, the Activity result in the test with C2C12 [7] was “Dose-dependent effect”. For the same compound, the result with C2C12 [8] and at SMAD1/5/9 (Mus musculus) [11] was Active.
